Data on 9 compounds can be found in US4855497A, “Novel diamine derivatives” (Chugai Seiyaku Kabushiki Kaisha, priority 1985, dated 1989).

Data set [1] deals with Ouabain-Induced Arrythmia. The data set can be described thus: Activity against ouabain-induced arrythmia in guinea pigs. The following applies: ouabain 5 μg/kg/min; for Time required for ventricular extrasystole to occur: untreated 28.5 min; for Time required for ventricular fibrillation to occur: untreated 35.1 min; for Time required for cardiac arrest to occur: untreated 41.2 min. The format is in vivo, Hartly male guinea pigs. The method, then:
Activity Against Ouabain-Induced Arrythmia in Guinea Pigs
Hartly male guinea pigs (5-6 wk. old, two animals per group) weighing about 350 g on average were anesthetized by intraperitoneal administration of 1.2 g/kg of urethane. A polyethylene cannula was inserted into both the cervical vein and the carotid artery; the drug was administered through the cervical vein while the blood pressure was measured at the carotid artery. A selected test compound was administered 5 minutes before the sustained intravenous infusion of the ouabain solution (5 μg/kg/min) as described in J. Pharmacol. Exp. Ther., 136, 227, 1962). Identification of arrythmia was made by the ECG in the second induction period; the appearance of a QRS complex with sharply downward deflictions was used as an indication of ventricular arrythmia and observation was continued until ventricular fibrillation and cardiac arrest appeared. The results are shown in Table 4 in terms of the times required for ventricular extrasystole, ventricular fibrillation and cardiac arrest to occur.

Data set [2] deals with Blood Sugar Level. Nature of the data set: Effect on blood sugar level. The format is in vivo, SD/Slc male rats. As to conditions: starved overnight. The method, then: Effect on Blood Sugar Level
After starving SD/Slc male rats (body weight, 250 g; 6 animals per group) overnight, 20-μl blood samples were drawn from the tail vein of each rat while it was not anesthetized. Records were taken of the sugar level in each blood sample. A selected compound of the present invention was suspended in 3% gum arabic and the suspension was administered perorally to each rat in an amount of 50 or 200 mg/kg. At 2, 4 and 6 hours of the administration, blood samples were taken and their blood sugar levels were measured. Measurements of blood sugar levels were conducted with a New Blood Sugar Test (Boehringer, Mannheim).
To the control group, a 3% gum arabic solution was administered, and diisopyramide was administered as a comparative drug.

In data set [3] the test system is Aconitine-Induced Arrythmia. The data set can be described thus: Activity against aconitine-induced arrythmia in rats. In kind it is in vivo, Sprague-Dowley male rats. The following applies: aconitine 1 μg/kg/min; for Time required for ventricular extrasystole to occur: untreated 14.3 min; for Time required for ventricular fibrillation to occur: untreated 35.3 min. How it is done:
Activity Against Aconitine-Induced Arrythmia in Rats
Using Sprague-Dowley male rats (9-10 wk. old, two animals per group) weighing about 350 g on average, the following experiment was conducted substantially in compliance with the method of Vargftig et al. (Europ. J. Pharmacol., 6, 49, 1969).
The animals were anesthetized by intraperitoneal administration of 1 g/kg of urethane. A polyethylene cannula was inserted into both the femoral artery and vein of each animal; the drug was administered through the femoral vein while the blood pressure was measured at the femoral artery.
While the aconitine solution was continuously infused into the vein at a rate of 1 μg/kg/min, a selected compound was administered intravenously at 5-minute intervals. In order to prevent the aconitine-induced dyspnea from interfering with the experimental results, 0.2 mg/kg of d-tubocurarine was administered intravenously to each animal, which then was subjected to artificial respiration through a cannula inserted into the trachea (80 breathings/min, with 4 ml of air supplied by a single ventillation).
Identification of arrythmia was made by the ECG in the second induction period; the appearance of a QRS complex with sharply downward deflections was used as an indication of ventricular arrythmia and observation was continued until ventricular fibrillation appeared. The results are shown in Table 3 in terms of the times required for ventricular extrasystole and ventricular fibrillation to occur.

Data set [4] relates to Acetylcholine. Nature of the data set: Activity against acetylcholine (I): inhibition of acetylcholine-induced contraction of isolated ilea. Also on record: species or system SD/Slc male rats. The following applies: 10^-4 M; 10^-6 M acetylcholine; isolated rat ilea. The method, then: Activity Against Acetylcholine (I)
SD/Slc male rats (10-mo. old, four animals per group) were clubbed dead and their ilea were immediately extracted. The ilea were suspended under a load of 1 g in a Krebs-Henseleit solution oxygenated with a mixture of 95% O2 +5% CO2 at 27° C., and the ileal reaction was measured isotonically.
The anti-cholinergic activity of each of the compounds tested was determined in terms of percent inhibition against the contractive reaction of 10^-6 M of acetylcholine (causing 60-70% of the maximum contractive reaction of acetylcholine).

Data set [5] relates to Chloroform-Induced Arrythmia. Nature of the data set: Activity against chloroform-induced arrythmia in rats (prevention of ventricular fibrillation). The format is in vivo, Sprague-Dowley male rats. As to conditions: Rattus norvegicus, po, 0.5 h; not starved rats; 1 mg/kg P.O.; 30 min prior to chloroform; read-out: Percent prevention (ventricular fibrillation), not starved. The method, then: Activity Aganist Chloroform-Induced Arrythmia in Rats
The following procedures were substantially in accordance with the method of Erker and Baker (Arch. Int. Pharmacodyn., 243, 97-102, 1980). Aminophylline (20 mg/kg) was injected intramuscularly into two groups of Sprague-Dowley male rats (3-4 wk. old, 7 animals per group) weighing about 100 g on average, one group having been starved for 24 hours and the other group not starved. Thirty minutes after the injection, the animals were put into a 4,000-ml glass beaker with a lid that contained gauze impregnated with […] of chloroform. Fifty minutes later, the animals were recovered from the beaker and their chests were incised to check their hearts for the presence of ventricular fibrillation. The features of their cardiac rhythm were examined by the electrocardiogram. When no distinct fibrillation was observed, the heart was touched with tweezers. The heart was identified as fibrillar when rapid irregular twitchings occured on the surface of ventricles and continued for at least 5 seconds after chest incision or mechanical stimulation.
Selected compounds suspended in 3% gum arabic were administered in various doses to the rats either intraperitoneally (i.P.) or perorally (P.O.) 30 minutes prior to treatment with chloroform. The percent prevention of ventricular fibrillation was determined for each rat. Only a 3% gum arabic solution was administered to the control group.

For the compound `Cc1cccc(C)c1NC(=O)CCNCCCN(C)C` [Compound No. 2, 3-(dimethylaminopropylamino)-2',6'-dimethylpropionanilide], in data set [1] (5 mg/kg via cervical vein), the “Time required for ventricular extrasystole to occur” value is on record as 31.0 min, the “Time required for ventricular fibrillation to occur” value is given as 38.5 min and the “Time required for cardiac arrest to occur” value turned out to be 39.5 min. Besides, in data set [1] (10 mg/kg via cervical vein), the “Time required for ventricular extrasystole to occur” value came to 38.1 min, the “Time required for ventricular fibrillation to occur” value was 43.4 min and the “Time required for cardiac arrest to occur” value came to 48.7 min. Also, in data set [2] (50 mg/kg perorally), the “Blood sugar level, 0 hr (mean ± S.E.)” value was 77.6 ± 5.5 mg/dL; the “Blood sugar level, 2 hr (mean ± S.E.)” value amounted to 61.3 ± 2.2 mg/dL; the “Blood sugar level, 4 hr (mean ± S.E.)” value amounted to 63.7 ± 4.5 mg/dL; the “Blood sugar level, 6 hr (mean ± S.E.)” value stood at 64.4 ± 4.4 mg/dL. In data set [2] (200 mg/kg perorally), the “Blood sugar level, 0 hr (mean ± S.E.)” value was 76.1 ± 2.4 mg/dL; the “Blood sugar level, 2 hr (mean ± S.E.)” value worked out at 52.9 ± 3.2 mg/dL; the “Blood sugar level, 4 hr (mean ± S.E.)” value came out at 58.3 ± 2.6 mg/dL; the “Blood sugar level, 6 hr (mean ± S.E.)” value was 56.8 ± 1.7 mg/dL. Moreover, in data set [3] (5 mg/kg intravenously), the “Time required for ventricular extrasystole to occur” value amounted to 25.5 min and the “Time required for ventricular fibrillation to occur” value came out at 36.5 min. In data set [4], the “Percent inhibition (contractive reaction of acetylcholine)” value (“Percent inhibition” below) is 7%. Besides, the responders at 1 mg/kg in data set [5] came to 71.4%.
On to `CCN(CC)CCCNCCC(=O)Nc1c(C)cccc1C` [Compound No. 3, 3-(diethylaminopropylamino)-2',6'-dimethylpropionanilide], for which, in data set [1] (10 mg/kg via cervical vein), the “Time required for ventricular extrasystole to occur” value is reported as 34.4 min, the “Time required for ventricular fibrillation to occur” value worked out at 42.2 min and the “Time required for cardiac arrest to occur” value worked out at 48.4 min. Also, in data set [3] (5 mg/kg intravenously), the “Time required for ventricular extrasystole to occur” value is 27.4 min and the “Time required for ventricular fibrillation to occur” value is greater than 120.0 min. The “Percent inhibition” value in data set [4] is 28%. For the same compound, the responders at 1 mg/kg in data set [5] was found to be 100%.
Consider `Cc1cccc(C)c1NC(=O)CCNCCNC(C)C` [Compound No. 4, 3-(isopropylaminoethylamino)-2', 6'-dimethylpropionanilide], for which, in data set [1] (10 mg/kg via cervical vein), the “Time required for ventricular extrasystole to occur” value stood at 42.5 min, the “Time required for ventricular fibrillation to occur” value turned out to be 59.5 min and the “Time required for cardiac arrest to occur” value is 66.5 min. In addition, in data set [2] (50 mg/kg perorally), the “Blood sugar level, 0 hr (mean ± S.E.)” value stood at 81.2 ± 2.4 mg/dL; the “Blood sugar level, 2 hr (mean ± S.E.)” value amounted to 60.3 ± 3.4 mg/dL; the “Blood sugar level, 4 hr (mean ± S.E.)” value came to 57.5 ± 1.6 mg/dL; the “Blood sugar level, 6 hr (mean ± S.E.)” value amounted to 61.5 ± 0.6 mg/dL. Moreover, in data set [2] (200 mg/kg perorally), the “Blood sugar level, 0 hr (mean ± S.E.)” value was 69.1 ± 2.9 mg/dL; the “Blood sugar level, 2 hr (mean ± S.E.)” value came to 57.4 ± 3.0 mg/dL; the “Blood sugar level, 4 hr (mean ± S.E.)” value was found to be 58.5 ± 2.1 mg/dL; the “Blood sugar level, 6 hr (mean ± S.E.)” value turned out to be 59.0 ± 1.8 mg/dL. For the same compound, in data set [3] (10 mg/kg intravenously), the “Time required for ventricular extrasystole to occur” value amounted to 34.4 min and the “Time required for ventricular fibrillation to occur” value is greater than 120.0 min. The “Percent inhibition” value in data set [4] is recorded as 0%. In addition, in data set [5], the responders at 1 mg/kg stood at 100%.
Regarding `Cc1cccc(C)c1NC(=O)CCNCCCN(C(C)C)C(C)C` [compound 11], in data set [1] (10 mg/kg via cervical vein), the “Time required for ventricular extrasystole to occur” value came out at 35.3 min, the “Time required for ventricular fibrillation to occur” value is recorded as 45.3 min and the “Time required for cardiac arrest to occur” value amounted to 52.4 min. Further, in data set [2] (50 mg/kg perorally), the “Blood sugar level, 0 hr (mean ± S.E.)” value worked out at 71.3 ± 2.9 mg/dL; the “Blood sugar level, 2 hr (mean ± S.E.)” value is 61.8 ± 3.1 mg/dL; the “Blood sugar level, 4 hr (mean ± S.E.)” value is 64.0 ± 2.2 mg/dL; the “Blood sugar level, 6 hr (mean ± S.E.)” value worked out at 63.8 ± 1.5 mg/dL. Further, in data set [2] (200 mg/kg perorally), the “Blood sugar level, 0 hr (mean ± S.E.)” value worked out at 62.3 ± 2.7 mg/dL; the “Blood sugar level, 2 hr (mean ± S.E.)” value was determined as 52.0 ± 3.5 mg/dL; the “Blood sugar level, 4 hr (mean ± S.E.)” value turned out to be 53.8 ± 3.8 mg/dL; the “Blood sugar level, 6 hr (mean ± S.E.)” value was determined as 63.6 ± 1.5 mg/dL. Further, in data set [3] (5 mg/kg intravenously), the “Time required for ventricular extrasystole to occur” value amounted to 26.2 min and the “Time required for ventricular fibrillation to occur” value is 73.8 min. Besides, in data set [3] (10 mg/kg intravenously), the “Time required for ventricular extrasystole to occur” value is on record as 44.2 min and the “Time required for ventricular fibrillation to occur” value is given as greater than 120.0 min. The “Percent inhibition” value in data set [4] stood at 0%. Further, the responders at 1 mg/kg in data set [5] came to 85.7%.
Consider `Cc1cccc(C)c1NC(=O)CCNCCCN(CC(C)C)CC(C)C` [compound 12], for which, in data set [1] (10 mg/kg via cervical vein), the “Time required for ventricular extrasystole to occur” value is 45.4 min, the “Time required for ventricular fibrillation to occur” value worked out at 48.2 min and the “Time required for cardiac arrest to occur” value is reported as 56.6 min. In addition, in data set [3] (5 mg/kg intravenously), the “Time required for ventricular extrasystole to occur” value was 26.2 min and the “Time required for ventricular fibrillation to occur” value is 30.2 min. For the same compound, in data set [5], the responders at 1 mg/kg worked out at 85.7%.
`Cc1cccc(C)c1NC(=O)CCNCCCNC1CCCCCCC1` [compound 14]: in data set [5], the responders at 1 mg/kg was 85.7%.
For `Cc1cccc(C)c1NC(=O)CCCNCCCN(CC(C)C)CC(C)C` [compound 18], in data set [4], the “Percent inhibition” value stood at 0%.
Regarding `CCc1cccc(CC)c1NC(=O)CCNCCCN(CC(C)C)CC(C)C` [compound 31], in data set [1] (5 mg/kg via cervical vein), the “Time required for ventricular extrasystole to occur” value was 34.1 min, the “Time required for ventricular fibrillation to occur” value is given as 51.0 min and the “Time required for cardiac arrest to occur” value turned out to be 57.8 min. For the same compound, in data set [3] (5 mg/kg intravenously), the “Time required for ventricular extrasystole to occur” value is 26.1 min and the “Time required for ventricular fibrillation to occur” value was greater than 90.0 min. In addition, in data set [5], the responders at 1 mg/kg amounted to 100%.
With `CCc1cccc(CC)c1NC(=O)CCNCCCCCN(CC(C)C)CC(C)C` [compound 35], in data set [1] (5 mg/kg via cervical vein), the “Time required for ventricular extrasystole to occur” value amounted to 45.4 min, the “Time required for ventricular fibrillation to occur” value was 48.4 min and the “Time required for cardiac arrest to occur” value is 56.2 min. Further, in data set [3] (5 mg/kg intravenously), the “Time required for ventricular extrasystole to occur” value was 24.5 min and the “Time required for ventricular fibrillation to occur” value was found to be 84.5 min. Also, the “Percent inhibition” value in data set [4] is given as 9%. Moreover, the responders at 1 mg/kg in data set [5] worked out at 100%.
